Data: BindingDB's records for doi:10.1016/s0960-894x(01)00248-7 (Smithkline Beecham Pharmaceuticals, 2001)
Values joined by “and” are separate entries in the source; they are usually repeats but may differ in a detail not shown here. Equal values may be shown once.

Assay: Agonistic activity of the compound against C-C chemokine receptor type 3 by displacing Eotaxin radioligand,using Esonophil chemotaxis assay

## COC(=O)[C@H](Cc1ccc([N+](=O)[O-])cc1)NC(=O)c1cccc2ccccc12 [(S)-2-[(Naphthalene-1-carbonyl)-amino]-3-(4-nitro-phenyl)-propionic acid methyl ester]
  IC50: 32 nM and 25 nM
